Experimental data: patent US12263175B2, “Optimised dosage of diaminophenothiazines in populations” (WisTa Laboratories Ltd., priority 2018, dated 2025)
Where “and” joins values, the source holds several entries; their conditions need not be identical. Identical values can stand only once. Like-named read-outs stand apart in the source and are kept apart here.

Assays:
[1] = Population PK model estimate of steady-state parent MT Cmax in bvFTD trial patients; assay type: in vivo; settings: human, plasma, oral, 8 mg/day, read-out: Cmax,ss cut-off, upper limit of the lowest 35% group
Description: (§1) The population PK model described above was used to estimate Cmax of parent MT in the patients in the bvFTD study. As with the AD trials described above, the median value at each dose was taken as a threshold for dividing patients into “High Cmax” and “Low Cmax” groups.
The cut-off that defined the upper limit of the lowest 35% group (corresponding to the percentage of patients with plasma levels below the validated limit of quantitation in Day 1) was 0.346 ng/ml for the bvFTD population.
As for AD (see Example 10) the remainder with Day 1 plasma levels within the validated range of quantitation at the 8 mg/day dose were distributed in 3 groups having approximately equal numbers (22% each; see Table EX7 below).

[2] = system: bvFTD patients; assay: Phase 3 bvFTD trial: clinical and MRI endpoints by Cmax,ss group; assay type: in vivo, human
Source text: The trial design for the Phase 3 trial of LMTM in behavioural variant frontotemporal dementia (bvFTD) is described in Examples 3 to 10 of WO2018/041739, which Examples also discuss those results. The disclosure of those Examples is specifically incorporated herein by reference.
as §1
However the decline in the Cmax high group was much reduced (−6.1±1.8). All efficacy analyses are based on an MMRM approach
Alternative efficacy analyses were performed in which the group of patients with minimal systemic exposure to the drug was used as a proxy for placebo. These are shown in the Table EX8 below and illustrated in FIG. 19.
In addition, a linear term was added to permit trends occurring at high concentrations to be included in the model using mean decline occurring at the 200 mg/day dose.

[3] = system: AD patients; assay: Phase 3 AD studies 005 and 015: clinical and MRI volumetric endpoints by Cmax,ss group; assay type: in vivo, human; settings: for EC50: Homo sapiens, 10920 h, ADAS-cog over 65 weeks, read-out: Cmax,ss concentration required for half-maximal treatment response
Description: The trial design for the Phase 3 AD studies “005” and “015” are described in Examples 4 and 3 respectively of WO2018/019823, which Examples also discuss those results. The disclosure of those Examples is specifically incorporated herein by reference. Briefly, those Phase 3 trials compared high doses of LMTM (150-250 mg/day) with a low dose (8 mg/day) intended as a mask for potential urine discolouration (Gauthier 2016; Wilcock 2018).
The results are shown in FIGS. 3a and 3b which show the same data. Patients using symptomatic treatments are labelled “Achmem”.
(§2) That threshold was <0.373 ng/mL.
A further analysis of ADAS-cog decline over 65 weeks was undertaken using a modified form of the Hill equation (Wagner, 1968) in order to estimate the minimum and maximum plasma concentrations for expected treatment response over 65 weeks. […] In addition, a linear term was added to permit trends occurring at high concentrations to be included in the model using data for doses in the range 150-250 mg/day. The expanded Hill equation was applied to the data in the form: change in parameter=Emin−(Emax*([C]−0.29))/(EC50+([C]−0.29))+(A*([C]−0.29)) where Emin is the imposed zero value, Emax is the maximum treatment effect assumed in the standard Hill equation, EC50 is the Cmax,ss at which the treatment effect is 50% of the maximum assumed in the standard Hill equation and A is a further linear term estimated by the model to take account of a potential biphasic response. […] The dose range in which the treatment response is estimated to be maximal is 20-60 mg/day.

[4] = Population PK model estimate of steady-state parent MT Cmax in AD patients (Studies 005 and 015); assay type: in vivo, human; settings: for Cmax: human, plasma, oral
Source text: This, the PK model was then further developed and simplified to a two compartment model fit to the parent MT concentrations only. This model has a fixed Vc, but the dose-dependent Ka is removed.
This model was derived from Study 036 discussed above. The disposition of parent MT post PO administration of LMTM was adequately described by a two-compartment model with and a delayed absorption occurring through two transit compartments. Apparent oral clearance (CL/F) of parent MT was related to renal function such that a small portion of the variability in parent CL is described by normalized creatinine clearance (CLCRN).
The population PK model was then used to estimate Cmax of parent MT in the patients who received 4 mg or high dose (c. 200 mg/day) in these Phase 3 AD studies. This Bayesian process involved fixing the population mean and inter-individual variability parameters to the estimates from the fit of the population PK model to the steady-state data from Study 036 and allowing the program to select a set of parameters, given those Bayesian priors, which best predicts the parent MT concentrations from Day 1 in each individual.
as §2
Higher doses were grouped according to dose (N=187-329 per group).
Since only 65% of patients receiving the 8 mg/day have plasma concentrations above the threshold required for significant treatment benefit, it is desirable to determine the minimum dose at which 100% patients would be expected to have plasma levels within the therapeutic range.

[5] = system: tau transgenic mouse model; assay: Tau transgenic mouse model, spatial learning memory after pre-treatment with symptomatic drugs; assay type: in vivo
Source text: As is evident from the foregoing, there is a reduction in the maximum effect of LMTM when it is combined with symptomatic treatments. It should be noted however, that this relates to a context in which patients have received LMTM against a background of chronic pre-treatment with symptomatic drugs. The mechanism of this has been elucidated in a series of experiments in a well characterised tau transgenic mouse model.

[6] = A. All patients split by Cmax,ss 0.373 ng/mL, over 65 weeks
[7] = B. Patients receiving LMTM, 8 mg/day, over 65 weeks
[8] = LMTM, 8 mg/day, as add-on therapy (AChEI and/or memantine), over 65 weeks
[9] = LMTM, 8 mg/day, as monotherapy, over 65 weeks
[10] = LMTM, 8 mg/day, threshold 0.373 ng/ml, over 65 weeks

## CN(C)c1ccc2c(c1)Sc1cc(N(C)C)ccc1N2 [LMTM, leuco-methylthioninium bis(hydromethanesulfonate)]
[1]
  Cmax: 0.346 ng/mL
[2]; bvFTD patients receiving 8 mg/day, expanded Hill equation
  Lower limiting plasma concentration required for treatment response: 0.29 ng/mL
[2]; bvFTD, 200 mg/day vs 8 mg/day
  Dose-response for high dose monotherapy on functional FAQ scale: inverse dose-response
[2]; bvFTD, whole brain volume over 52 weeks
  Predicted dose corresponding to the maximum limiting concentration: 301 mg/day
[2]; bvFTD, whole brain volume over 52 weeks, expanded Hill equation
  Maximum limiting concentration at which the treatment effect was lost: 13.57 ng/mL
[3]; 4 mg bid, over 65 weeks
  Predicted treatment effect relative to placebo: ~5 ADAS-cog units
[3]; [6]
  ADAS-cog Difference ± SEM, Cmax,ss above vs below 0.373 ng/mL: −2.99 ± 0.67 ADAS-cog units
  ADCS-ADL Difference ± SEM, Cmax,ss above vs below 0.373 ng/mL: 0.54 ± 0.94
  LVV Difference ± SEM, Cmax,ss above vs below 0.373 ng/mL: −1.52 ± 0.34 cm^3
  WBV Difference ± SEM, Cmax,ss above vs below 0.373 ng/mL: 3.55 ± 1.06 cm^3
[3]; [7]
  ADCS-ADL Difference ± SEM, Cmax,ss above vs below 0.373 ng/mL: 1.22 ± 1.01
  LVV Difference ± SEM, Cmax,ss above vs below 0.373 ng/mL: −1.78 ± 0.38 cm^3
  WBV Difference ± SEM, Cmax,ss above vs below 0.373 ng/mL: 4.39 ± 1.18 cm^3
[3]; LMTM combined with symptomatic treatments
  EC50: 0.4 ± 0.05 ng/mL
[3]; LMTM monotherapy
  EC50: 0.32 ± 0.01 ng/mL
[3]; [8]
  ADAS-cog11 Difference ± SEM, Cmax,ss above vs below 0.373 ng/mL: −3.52 ± 0.78
  ADCS-ADL23 Difference ± SEM, Cmax,ss above vs below 0.373 ng/mL: 1.32 ± 1.04
  LVV Difference ± SEM, Cmax,ss above vs below 0.373 ng/mL: −1.35 ± 0.37 cm^3
  WBV Difference ± SEM, Cmax,ss above vs below 0.373 ng/mL: 4.69 ± 1.21 cm^3
[3]; [9]
  ADAS-cog11 Difference ± SEM, Cmax,ss above vs below 0.373 ng/mL: −2.60 ± 1.16
  ADCS-ADL23 Difference ± SEM, Cmax,ss above vs below 0.373 ng/mL: 0.46 ± 1.47
  LVV Difference ± SEM, Cmax,ss above vs below 0.373 ng/mL: −1.46 ± 0.45 cm^3
  WBV Difference ± SEM, Cmax,ss above vs below 0.373 ng/mL: 2.76 ± 1.66 cm^3
[3]; [10]
  ADAS-cog11 Difference ± SEM, low Cmax add-on vs high Cmax monotherapy: −7.53 ADAS-cog11 units and −7.53 ± 1.22 ADAS-cog11 units
  ADCS-ADL23 Difference ± SEM, low Cmax add-on vs high Cmax monotherapy: 6.14 ± 1.64
  LVV Difference ± SEM, low Cmax add-on vs high Cmax monotherapy: −3.15 ± 0.62 cm^3
  WBV Difference ± SEM, low Cmax add-on vs high Cmax monotherapy: 11.54 ± 1.87 cm^3
[3]; expanded Hill equation, ADAS-cog decline over 65 weeks
  Dose range in which the treatment response is estimated to be maximal: 20 to 60 mg/day
[3]; expanded Hill equation, over 65 weeks
  Reduction of estimated maximum treatment effect when combined with symptomatic treatments, compared with monotherapy: about 4 ADAS-cog units
[3]; high dose LMTM (pooled 200 mg/day)
  Temporal lobe FDG-PET decline: attenuated benefit otherwise seen for LMTM monotherapy
[3]; pooled 8 mg/day (4 mg bid), Studies 005 and 015, over 65 weeks
  Mean difference between monotherapy and add-on, ADAS-cog change: ~4 ADAS-cog units
[4]; 4 mg bid
  Proportion of subjects above Cmax threshold: 50%
[4]; AD patients
  Critical therapeutic threshold for Cave,ss: 0.223 ng/mL
  Critical therapeutic threshold for Cmax,ss: 0.393 ng/mL
[4]; AD patients receiving 8 mg/day
  Patients with plasma concentrations above the threshold required for significant treatment benefit: 65%
[4]; AD, studies TRx-237-015 and TRx-237-005, 8 mg/day - Group 2
  Plasma-modelled parent MT Cmax,ss Mean (SD): 0.393 (0.0125) ng/mL
[4]; AD, QD or BID, either Cmax,ss or Cave,ss criterion
  Dose for 100% of patients to have plasma levels in the therapeutic range: at least 16 mg/day
[4]; dosing above 20 mg MT (e.g. as LMTM), depends on number of split doses
  Proportion of subjects achieving Cmax above the median-derived threshold value: 90 to 100%
[4]; 8 mg/day, AD patients receiving LMTM 8 mg/day, read-out: Cmax,ss threshold, upper limit of the lowest 35% of patients
  Cmax: < 0.373 ng/mL
[4]; 8 mg/day, AD, studies TRx-237-015 and TRx-237-005, 8 mg/day - Group 1, read-out: Plasma-modelled parent MT Cmax,ss Range
  Cmax: 0.257 to 0.373 ng/mL
[4]; 8 mg/day, AD, studies TRx-237-015 and TRx-237-005, 8 mg/day - Group 2, read-out: Plasma-modelled parent MT Cmax,ss Range
  Cmax: 0.373 to 0.414 ng/mL
[4]; 8 mg/day, AD, studies TRx-237-015 and TRx-237-005, 8 mg/day - Group 3, read-out: Plasma-modelled parent MT Cmax,ss Range
  Cmax: 0.415 to 0.478 ng/mL
[4]; 8 mg/day, AD, studies TRx-237-015 and TRx-237-005, 8 mg/day - Group 4, read-out: Plasma-modelled parent MT Cmax,ss Range
  Cmax: 0.479 to 0.812 ng/mL
[4]; 150 mg/day, AD, studies TRx-237-015 and TRx-237-005, 150 mg/day, read-out: Plasma-modelled parent MT Cmax,ss Range
  Cmax: 5.1 to 18.6 ng/mL
[4]; 200 mg/day, AD, studies TRx-237-015 and TRx-237-005, 200 mg/day, read-out: Plasma-modelled parent MT Cmax,ss Range
  Cmax: 6.56 to 21.3 ng/mL
[4]; 250 mg/day, AD, studies TRx-237-015 and TRx-237-005, 250 mg/day, read-out: Plasma-modelled parent MT Cmax,ss Range
  Cmax: 8.83 to 21.2 ng/mL
[4]; ˜20 mg/day (10 mg bid)
  Estimated proportion of subjects above Cmax threshold: ~100%
[5]; chronic pre-treatment with rivastigmine
  Effect on spatial learning memory: elimination of the beneficial effect
[5]; pre-treatment with memantine
  Effect on spatial learning memory: eliminated the effect
